Data as given in patent US10570179B2, “Substituted urea depsipeptide analogs as activators of the CLPP endopeptidase” (priority 2016, dated 2020).
In brackets after ≈: the same amount, converted by molar mass. Where two headings read alike, the source gives them in different places. Numbered stars: 1 amine (or outer) side, 2 acyl side, 3 side chain; on linkers, the order of the positions; unused ones are H or OH. Bridge positions count the residues as written; N and C are the ends. Square brackets hold non-standard residues; d marks the D form. Peptide text beside a SMILES is read from it. * marks the point of attachment. X5 = O=C([C@@H]1C[C@@H](OP(=O)(O)O)CN1[*:1])[*:2]; Piperazine(2S-CO,4-Me) = CN1CCN[C@H](C(=O)O)C1; Morpholine(3S-CO) = O=C(O)[C@@H]1COCCN1; Phe(3-Me) = Cc1cccc(C[C@H](N)C(=O)O)c1; NH(4-Cl-2-F-phenyl) = Fc1cc(Cl)ccc1N*; Pro(4R-Me) = C[C@H]1CN[C@H](C(=O)O)C1; Hyp = O=C(O)[C@@H]1C[C@@H](O)CN1; NH(4-Et-phenyl) = CCc1ccc(N*)cc1; NH(4-Me-phenyl) = Cc1ccc(N*)cc1; aThr = C[C@H](O)[C@H](N)C(=O)O; Pip = O=C(O)[C@@H]1CCCCN1; X3 = c1cc2c(cc1N*)OCCO2; CO = O=C([*:1])[*:2]

Assays:
[1] = tested on: S. aureus ΔClpP; experiment: Minimal inhibitory concentration, microbroth dilution; type: cell-based, Staphylococcus aureus; details: MIC; ClpP inactivated
Summary of the method: (§1)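 MIC is recorded by eye as the lowest drug concentration that stops bacterial growth. Compound is serially diluted twofold in broth, starting at 200 μM final, and bacteria are added at roughly 10^5 cfu/mL. Incubation runs overnight at 37 °C under aerobic conditions, per CLSI guidance.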

[2] = Plasma stability assay; type: in vitro ADME, human
Summary of the method: (§2)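 Compounds at 10 μM final in human or mouse plasma, incubated at 37 °C and sampled at 0, 3, 24 and 48 h in triplicate. Reactions quenched with cold acetonitrile containing warfarin internal standard; parent measured by LC-MS. Half-life from least-squares first-order fit.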

[3] = tested on: S. aureus USA 300; experiment: Minimal inhibitory concentration, microbroth dilution; type: cell-based; details: Staphylococcus aureus
Summary of the method: as §1

[4] = tested on: E. faecails; experiment: as above; type: cell-based; details: Enterococcus faecalis
Summary of the method: as §1

[5] = tested on: S. aureus ATCC 29213; experiment: as above; type: cell-based; details: Staphylococcus aureus
Summary of the method: as §1

[6] = tested on: MRSA NRS70; experiment: as above; type: cell-based; details: Staphylococcus aureus
Summary of the method: as §1

[7] = Plasma stability assay; type: in vitro ADME, mouse
Summary of the method: as §2

[8] = biological target: T1, Sa-ClpP (Staphylococcus aureus, UniProt Q2G036); experiment: ADEP displacement fluorescence polarization assay; type: binding, S. aureus; details: displacement of FP probe ADEP 2591 from Sa-ClpP
T1 construct: made in house; host or cells: E. coli BL21 (DE3)
T1 sequence (Q2G036 whole entry): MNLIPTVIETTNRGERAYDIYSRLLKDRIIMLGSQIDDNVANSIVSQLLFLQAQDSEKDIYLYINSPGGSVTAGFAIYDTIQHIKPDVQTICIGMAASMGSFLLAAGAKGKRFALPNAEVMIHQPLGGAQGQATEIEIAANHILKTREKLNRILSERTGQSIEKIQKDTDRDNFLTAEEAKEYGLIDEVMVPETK
Summary of the method: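 Master mix of 15 μM Sa-ClpP and 50 nM TAMRA-labelled ADEP 2591 probe in Tris-HCl pH 8.0, 2% DMSO, was pre-equilibrated 1 h at RT, then compounds were added and incubated 120 min at RT. Polarization (ex 530, em 579 nm, mP) was normalised to 200 μM ADEP 2378 and DMSO controls and fitted by four-parameter regression, in triplicate.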

[9] = USA300, MIC, read-out: Minimal Inhibitory Concentrations (μM) S. aureus USA 300
[10] = MIC, read-out: Minimal Inhibitory Concentrations (μM) E. faecails
[11] = ATCC29213, MIC, read-out: Minimal Inhibitory Concentrations (μM) S. aureus ATCC 29213
[12] = MIC, read-out: Minimal Inhibitory Concentrations (μM) MRSA NRS70
[13] = plasma stability half-life, human plasma, 37° C.
[14] = USA300, read-out: Minimal Inhibitory Concentrations (μM) S. aureus USA 300, MIC
[15] = read-out: Minimal Inhibitory Concentrations (μM) E. faecails, MIC
[16] = ATCC29213, read-out: Minimal Inhibitory Concentrations (μM) S. aureus ATCC 29213, MIC
[17] = read-out: Minimal Inhibitory Concentrations (μM) MRSA NRS70, MIC
[18] = plasma stability half-life, mouse plasma, 37° C.

SMILES | Minimal Inhibitory Concentrations (μM) S. aureus ΔClpP [1] [µM] | Human ([2]; human, 10 μM) [h] | MIC [3, 9] [µM] | MIC [4, 10] [µM] | MIC [5, 11] [µM] | MIC [6, 12] [µM] | Mouse ([7]; mouse, 10 μM) [h] | IC50 [8] [µM] | Human [2, 13] [h] | MIC [3, 14] [µM] | MIC [4, 15] [µM] | MIC [5, 16] [µM] | MIC [6, 17] [µM] | Mouse [7, 18] [h]
CCc1ccc(NC(=O)N[C@@H](Cc2cccc(C)c2)C(=O)N[C@@H]2C(=O)N3C[C@H](O)C[C@H]3C(=O)N3CCOC[C@H]3C(=O)N[C@@H](C)C(=O)N3C[C@H](C)C[C@H]3C(=O)O[C@H]2C)cc1 [Compound 24, (S)-2-(3-(4-ETHYLPHENYL)UREIDO)-N-((6AS,8R,12S,13S,15AS,17R,21S,23AS)-8-HYDROXY-13,17,21-TRIMETHYL-6,11,15,20,23-PENTAOXOOCTADECAHYDRO-6H,11H,15H-[1,4]OXAZINO[3,4-I]DIPYRROLO[2,1-C:2′,1′-L][1]OXA[4,7,10,13]TETRAAZACYCLOHEXADECIN-12-YL)-3-(M-TOLYL)PROPANAMIDE] ({NH(4-Et-phenyl)-CO}-[Phe(3-Me)][aThr][Hyp][Morpholine(3S-CO)]A[Pro(4R-Me)]; ester 2-C) | >20 | 90.86 | 0.313 (≈ 0.256 µg/mL) | 0.156 (≈ 0.128 µg/mL) | 0.313 (≈ 0.256 µg/mL) | 0.156 (≈ 0.128 µg/mL) | >50 | 2.31 ± 0.2 |  |  |  |  |  | 
CCc1ccc(NC(=O)N[C@@H](Cc2cccc(C)c2)C(=O)N[C@@H]2C(=O)N3C[C@H](O)C[C@H]3C(=O)N3CCCC[C@H]3C(=O)N[C@@H](C)C(=O)N3C[C@H](C)C[C@H]3C(=O)O[C@H]2C)cc1 [Compound 25, (S)-2-(3-(4-ETHYLPHENYL)UREIDO)-N-((2R,6S,8AS,14AS,16R,20S,21S,23AS)-16-HYDROXY-2,6,21-TRIMETHYL-5,8,14,19,23-PENTAOXOOCTADECAHYDRO-1H,5H,14H,19H-PYRIDO[2,1-I]DIPYRROLO[2,1-C:2′,1′-L][1]OXA[4,7,10,13]TETRAAZACYCLOHEXADECIN-20-YL)-3-(M-TOLYL)PROPANAMIDE] ({NH(4-Et-phenyl)-CO}-[Phe(3-Me)][aThr][Hyp][Pip]A[Pro(4R-Me)]; ester 2-C) | >20 | >50 | 0.313 (≈ 0.255 µg/mL) | 0.156 (≈ 0.127 µg/mL) | 0.156 (≈ 0.127 µg/mL) | 0.156 (≈ 0.127 µg/mL) | >50 | 4.76 ± 0.33 |  |  |  |  |  | 
Cc1ccc(NC(=O)N[C@@H](Cc2cccc(C)c2)C(=O)N[C@@H]2C(=O)N3C[C@H](O)C[C@H]3C(=O)N3CCCC[C@H]3C(=O)N[C@@H](C)C(=O)N3C[C@H](C)C[C@H]3C(=O)O[C@H]2C)cc1 [Compound 26, (S)—N-((2R,6S,8AS,14AS,16R,20S,21S,23AS)-16-HYDROXY-2,6,21-TRIMETHYL-5,8,14,19,23-PENTAOXOOCTADECAHYDRO-1H,5H,14H,19H-PYRIDO[2,1-I]DIPYRROLO[2,1-C:2′,1′-L][1]OXA[4,7,10,13]TETRAAZACYCLOHEXADECIN-20-YL)-3-(M-TOLYL)-2-(3-(P-TOLYL)UREIDO)PROPANAMIDE] ({NH(4-Me-phenyl)-CO}-[Phe(3-Me)][aThr][Hyp][Pip]A[Pro(4R-Me)]; ester 2-C) | >20 |  |  |  |  |  |  | 4.26 ± 0.16 | >50 | 2.5 (≈ 2 µg/mL) | 5 (≈ 4.01 µg/mL) | 0.313 (≈ 0.251 µg/mL) | 0.313 (≈ 0.251 µg/mL) | >50
Cc1cccc(C[C@H](NC(=O)Nc2ccc3c(c2)OCCO3)C(=O)N[C@@H]2C(=O)N3C[C@H](O)C[C@H]3C(=O)N3CCOC[C@H]3C(=O)N[C@@H](C)C(=O)N3C[C@H](C)C[C@H]3C(=O)O[C@H]2C)c1 [Compound 27, (S)-2-(3-(2,3-DIHYDROBENZO[B][1,4]DIOXIN-6-YL)UREIDO)-N-((6AS,8R,12S,13S,15AS,17R,21S,23AS)-8-HYDROXY-13,17,21-TRIMETHYL-6,11,15,20,23-PENTAOXOOCTADECAHYDRO-6H,11H,15H-[1,4]OXAZINO[3,4-I]DIPYRROLO[2,1-C:2′,1′-L][1]OXA[4,7,10,13]TETRAAZACYCLOHEXADECIN-12-YL)-3-(M-TOLYL)PROPANAMIDE] ({X3-CO}-[Phe(3-Me)][aThr][Hyp][Morpholine(3S-CO)]A[Pro(4R-Me)]; ester 2-C) | >20 | >50 | 20 (≈ 17 µg/mL) | 2.5 (≈ 2.12 µg/mL) | 10 (≈ 8.48 µg/mL) | 10 (≈ 8.48 µg/mL) | >50 | 5.13 ± 0.16 |  |  |  |  |  | 
Cc1cccc(C[C@H](NC(=O)Nc2ccc3c(c2)OCCO3)C(=O)N[C@@H]2C(=O)N3C[C@H](O)C[C@H]3C(=O)N3CCCC[C@H]3C(=O)N[C@@H](C)C(=O)N3C[C@H](C)C[C@H]3C(=O)O[C@H]2C)c1 [Compound 28, (S)-2-(3-(2,3-DIHYDROBENZO[B][1,4]DIOXIN-6-YL)UREIDO)-N-((2R,6S,8AS,14AS,16R,20S,21S,23AS)-16-HYDROXY-2,6,21-TRIMETHYL-5,8,14,19,23-PENTAOXOOCTADECAHYDRO-1H,5H,14H,19H-PYRIDO[2,1-I]DIPYRROLO[2,1-C:2′,1′-L][1]OXA[4,7,10,13]TETRAAZACYCLOHEXADECIN-20-YL)-3-(M-TOLYL)PROPANAMIDE] ({X3-CO}-[Phe(3-Me)][aThr][Hyp][Pip]A[Pro(4R-Me)]; ester 2-C) | >20 | >50 | 2.5 (≈ 2.11 µg/mL) | 0.625 (≈ 0.529 µg/mL) | 2.5 (≈ 2.11 µg/mL) | 2.5 (≈ 2.11 µg/mL) | >50 | 4.86 ± 0.17 |  |  |  |  |  | 
Cc1cccc(C[C@H](NC(=O)Nc2ccc(Cl)cc2F)C(=O)N[C@@H]2C(=O)N3C[C@H](OP(=O)(O)O)C[C@H]3C(=O)N3CCCC[C@H]3C(=O)N[C@@H](C)C(=O)N3C[C@H](C)C[C@H]3C(=O)O[C@H]2C)c1 [Compound 29, (2R,6S,8AS,14AS,16R,20S,21S,23AS)-20-((S)-2-(3-(4-CHLORO-2-FLUOROPHENYL)UREIDO)-3-(M-TOLYL)PROPANAMIDO)-2,6,21-TRIMETHYL-5,8,14,19,23-PENTAOXOOCTADECAHYDRO-1H,5H,14H,19H-PYRIDO[2,1-I]DIPYRROLO[2,1-C:2′,1′-L][1]OXA[4,7,10,13]TETRAAZACYCLOHEXADECIN-16-YL DIHYDROGEN PHOSPHATE] ({NH(4-Cl-2-F-phenyl)-CO}-[Phe(3-Me)][aThr][X5][Pip]A[Pro(4R-Me)]; ester 2-C) | >20 |  |  |  |  |  |  | 4.45 ± 0.45 | >50 | 10 | 20 | 5 | 2.5 | 102.25
Cc1ccc(NC(=O)N[C@@H](Cc2cccc(C)c2)C(=O)N[C@@H]2C(=O)N3C[C@H](O)C[C@H]3C(=O)N3CCN(C)C[C@H]3C(=O)N[C@@H](C)C(=O)N3C[C@H](C)C[C@H]3C(=O)O[C@H]2C)cc1 [Compound 30, (S)—N-((6AS,8R,12S,13S,15AS,17R,21S,23AS)-8-HYDROXY-2,13,17,21-TETRAMETHYL-6,11,15,20,23-PENTAOXOOCTADECAHYDRO-2H,6H,11H,15H-PYRAZINO[2,1-I]DIPYRROLO[2,1-C:2′,1′-L][1]OXA[4,7,10,13]TETRAAZACYCLOHEXADECIN-12-YL)-3-(M-TOLYL)-2-(3-(P-TOLYL)UREIDO)PROPANAMIDE] ({NH(4-Me-phenyl)-CO}-[Phe(3-Me)][aThr][Hyp][Piperazine(2S-CO,4-Me)]A[Pro(4R-Me)]; ester 2-C) | >20 |  |  |  |  |  |  | 3.41 ± 0.41 | >50 | 2.5 (≈ 2.04 µg/mL) | 0.313 (≈ 0.256 µg/mL) | 0.625 (≈ 0.511 µg/mL) | 2.5 (≈ 2.04 µg/mL) | >50
Cc1cccc(C[C@H](NC(=O)Nc2ccc(Cl)cc2F)C(=O)N[C@@H]2C(=O)N3C[C@H](O)C[C@H]3C(=O)N3CCN(C)C[C@H]3C(=O)N[C@@H](C)C(=O)N3C[C@H](C)C[C@H]3C(=O)O[C@H]2C)c1 [Compound 31, (S)-2-(3-(4-CHLORO-2-FLUOROPHENYL)UREIDO)-N-((6AS,8R,12S,13S,15AS,17R,21S,23AS)-8-HYDROXY-2,13,17,21-TETRAMETHYL-6,11,15,20,23-PENTAOXOOCTADECAHYDRO-2H,6H,11H,15H-PYRAZINO[2,1-I]DIPYRROLO[2,1-C:2′,1′-L][1]OXA[4,7,10,13]TETRAAZACYCLOHEXADECIN-12-YL)-3-(M-TOLYL)PROPANAMIDE] ({NH(4-Cl-2-F-phenyl)-CO}-[Phe(3-Me)][aThr][Hyp][Piperazine(2S-CO,4-Me)]A[Pro(4R-Me)]; ester 2-C) | >20 | >50 | 0.078 (≈ 0.0667 µg/mL) | < 0.02 | < 0.02 | < 0.02 | >50 | 3.07 ± 0.07 |  |  |  |  |  | 
